In brackets after ≈: the same amount, converted by molar mass. Like-named read-outs stand apart in the source and are kept apart here. Bridge positions count the residues as written; N and C are the ends. Ends that are not written are not given here. Peptide text beside a SMILES is read from it.
Assays:
Solubility of peptides = type: physicochemical
ldlr−/− mice = assay: General safety in ldlr-/- mice (blood cells, blood chemistries, infection); type: in vivo, mouse
Description: Six week old B6.129S7-Ldlrtm1Her/J female mice were purchased from Jackson Laboratories. Mice were fed a Western diet containing 21% milk fat and 0.15% cholesterol and maintained according to the guidelines for use and care of laboratory animals approved by the Vanderbilt University Institutional Animal Care and Use Committee. Mice and food were weighed at the beginning and end of each experiment. Blood chemistries were determined in fasting mouse plasma using an automated chemistry analyzer in the Vanderbilt Clinical Research Center. Total cholesterol and triglycerides in liver and cholesterol in feces were analyzed by standard methods in the Lipid Core Laboratory. Complete blood cell counts were performed in the Clinical Hematology Laboratory and flow cytometry analysis of lymphocytes subsets was. Cryostat sections of livers were stained with Oil-red-O. Atherosclerotic lesions and macrophages were analyzed in the aortic root by staining with Oil-red-O and MOMA-2, respectively. Average lesion area was determined using Imaging System KS300 2.0.

[1] = test system: importins alpha 1, 4, and 5; assay: Importins pull-down assay, Jurkat T cell extract; type: binding, human; settings: biotinylated peptide, Jurkat T cell lysate pull-down
Description: (§1) Cell-penetrating peptide cSN50.1 (2986 Da) and other peptides listed in Table 1 were synthesized and prepared as previously described (Liu, D., et al., (2009) Mol Ther 17, 796-802). Biotinylated NTM peptides and their constituent modules were prepared in the same manner, with biotin added to the amino terminus at the last step of synthesis. When necessary, a 5-7 hydrophilic amino acid tag was added to peptide modules to facilitate solubility. For i.p. administration, 200 μl aliquots containing 0.4 or 0.7 mg of cSN50.1 in saline was injected at 8 h or 12 h intervals. Alternatively, 10 mg cSN50.1 in 100 μl sterile H2O was administered subcutaneously from ALZET Osmotic Pumps (1007D) placed aseptically in interscapular areas. A bolus of 0.7 mg cSN50.1 in 100 μl saline was administered i.p. at weekly pump changes to assure steady NTM bioavailability. Dosage schedules were developed based on previous experimental protocols and half-life studies. Control mice received sterile saline in the same volumes as NTM. Importins pull-down assay. Ten nmols of biotinylated NTM peptides or their constituent modules depicted in Table 1 (SN50, cSN50.1, N50, cN50.1, SSHR-1, SSHR-2) were incubated overnight at 4° C. with 1.5 mg of whole cell extract from unstimulated human Jurkat T cells or serum-starved human HepG2 cells lysed in binding buffer (10 mM HEPES at pH 7.9, 150 mM NaCl, 10 mM KCl, 2.5 mM MgCl2, 1 mM EGTA, 1 mM DTT, 0.1% NP-40, 1% protease inhibitor cocktail). Lysate was cleared by centrifugation (16,000×g for 30 min at 4° C.) and transferred to a fresh tube containing high capacity Neutravidin beads (Thermo Scientific). After 4 h, beads were separated from lysate/peptide mixture by centrifugation (30 s at 1,000×g) and washed 3 times with binding buffer and 2 times with PBS. Beads were boiled for 10 min in SDS loading buffer, and protein content was analyzed by immunoblotting with a panel of anti-importins alpha and beta antibodies and anti-GAPDH (Abcam) as a cellular protein control.

importin beta [2] = target: T1, importin beta (Homo sapiens, UniProt Q14974); assay: Importins pull-down assay, Jurkat T cell extract; type: binding; set-up: whole cell extract from unstimulated human Jurkat T cells; endogenous in cells; host or cells: human Jurkat T cells, whole-cell extract; settings: biotinylated peptide, Jurkat T cell lysate pull-down
T1 sequence (Q14974 whole entry): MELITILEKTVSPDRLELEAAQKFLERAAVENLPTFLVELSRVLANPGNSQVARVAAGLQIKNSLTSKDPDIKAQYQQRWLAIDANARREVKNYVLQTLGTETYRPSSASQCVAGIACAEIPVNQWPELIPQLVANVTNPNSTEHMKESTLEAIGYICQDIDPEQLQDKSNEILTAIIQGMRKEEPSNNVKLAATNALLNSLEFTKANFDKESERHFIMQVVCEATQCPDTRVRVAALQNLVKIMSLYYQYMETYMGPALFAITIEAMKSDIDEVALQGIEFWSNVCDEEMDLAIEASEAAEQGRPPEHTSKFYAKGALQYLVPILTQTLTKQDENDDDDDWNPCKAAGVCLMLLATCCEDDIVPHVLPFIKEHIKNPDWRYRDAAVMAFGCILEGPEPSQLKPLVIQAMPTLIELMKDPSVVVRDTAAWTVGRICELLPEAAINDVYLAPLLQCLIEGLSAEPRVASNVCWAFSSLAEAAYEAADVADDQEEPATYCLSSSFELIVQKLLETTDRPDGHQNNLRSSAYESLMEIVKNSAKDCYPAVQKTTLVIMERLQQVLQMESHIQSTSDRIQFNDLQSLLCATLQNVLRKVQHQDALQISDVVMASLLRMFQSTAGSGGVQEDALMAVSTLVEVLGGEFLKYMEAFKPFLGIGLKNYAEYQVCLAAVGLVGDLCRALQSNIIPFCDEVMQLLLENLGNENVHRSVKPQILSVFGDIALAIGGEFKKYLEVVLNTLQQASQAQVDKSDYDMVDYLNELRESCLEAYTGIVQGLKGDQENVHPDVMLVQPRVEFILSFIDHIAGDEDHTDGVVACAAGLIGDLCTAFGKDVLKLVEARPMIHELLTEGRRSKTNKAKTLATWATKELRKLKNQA
Description: as §1

GAPDH [3] = target: T2, GAPDH (Homo sapiens, UniProt P04406); assay: Importins pull-down assay, HepG2 cell extract, control protein; type: binding; set-up: endogenous in cells; host or cells: human hepatoma HepG2 cells, starved overnight in 1% FBS, whole-cell extract; settings: HepG2 cell extracts
T2 sequence (P04406 whole entry): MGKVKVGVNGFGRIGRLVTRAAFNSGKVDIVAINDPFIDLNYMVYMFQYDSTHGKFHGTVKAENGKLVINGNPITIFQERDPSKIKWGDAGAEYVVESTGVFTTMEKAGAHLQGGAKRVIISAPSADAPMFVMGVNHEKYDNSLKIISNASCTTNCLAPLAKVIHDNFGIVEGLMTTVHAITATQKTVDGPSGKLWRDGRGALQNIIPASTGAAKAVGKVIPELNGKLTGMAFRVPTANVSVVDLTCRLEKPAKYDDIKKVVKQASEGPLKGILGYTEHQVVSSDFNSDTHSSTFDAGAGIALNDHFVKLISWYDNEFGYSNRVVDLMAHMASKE
Description: (§2) Cell-penetrating peptide cSN50.1 (2986 Da) and other peptides listed in Table 1 were synthesized and prepared as previously described (Liu, D., et al., (2009) Mol Ther 17, 796-802). Biotinylated NTM peptides and their constituent modules were prepared in the same manner, with biotin added to the amino terminus at the last step of synthesis. When necessary, a 5-7 hydrophilic amino acid tag was added to peptide modules to facilitate solubility. For i.p. administration, 200 μl aliquots containing 0.4 or 0.7 mg of cSN50.1 in saline was injected at 8 h or 12 h intervals. Alternatively, 10 mg cSN50.1 in 100 μl sterile H2O was administered subcutaneously from ALZET Osmotic Pumps (1007D) placed aseptically in interscapular areas. A bolus of 0.7 mg cSN50.1 in 100 μl saline was administered i.p. at weekly pump changes to assure steady NTM bioavailability. Dosage schedules were developed based on previous experimental protocols and half-life studies. Control mice received sterile saline in the same volumes as NTM. Importins pull-down assay. […] Beads were boiled for 10 min in SDS loading buffer, and protein content was analyzed by immunoblotting with a panel of anti-importins alpha and beta antibodies and anti-GAPDH (Abcam) as a cellular protein control. […]

importin beta [4] = target: T1, importin beta; assay: Nuclear Transport Modifier/importin beta competition binding assay; set-up: whole cell extract from unstimulated human Jurkat T cells; endogenous in cells; host or cells: human Jurkat T cells, whole-cell extract; settings: free non-biotinylated peptide 0-300 μM, Jurkat T cell extract
Description: Non-biotinylated SN50 peptide (at 0, 10, 30, 100 or 300 μM concentrations) was incubated overnight with 1 mg of human Jurkat T cell whole-cell extract at 4° C. Simultaneously, biotinylated SN50 peptide (10 nmols) was immobilized on high capacity Neutravidin beads at 4° C. overnight, then washed 3 times with PBS and 1 time with binding buffer to remove unbound biotinylated SN50. Binding mixture was precleared by centrifugation (16,000×g for 30 min at 4° C.) and transferred to a fresh tube containing washed high capacity Neutravidin beads complexed with immobilized biotinylated SN50 peptide. Immunoblot analysis of importin beta bound to beads was performed as described in the importins pull-down assay.

GAPDH [5] = target: T2, GAPDH; assay: Importins pull-down assay, Jurkat T cell extract, control protein; type: binding; set-up: endogenous in cells; settings: biotinylated peptide, Jurkat T cell lysate pull-down
Description: (§3) Cell-penetrating peptide cSN50.1 (2986 Da) and other peptides listed in Table 1 were synthesized and prepared as previously described (Liu, D., et al., (2009) Mol Ther 17, 796-802). Biotinylated NTM peptides and their constituent modules were prepared in the same manner, with biotin added to the amino terminus at the last step of synthesis. When necessary, a 5-7 hydrophilic amino acid tag was added to peptide modules to facilitate solubility. For i.p. administration, 200 μl aliquots containing 0.4 or 0.7 mg of cSN50.1 in saline was injected at 8 h or 12 h intervals. Alternatively, 10 mg cSN50.1 in 100 μl sterile H2O was administered subcutaneously from ALZET Osmotic Pumps (1007D) placed aseptically in interscapular areas. A bolus of 0.7 mg cSN50.1 in 100 μl saline was administered i.p. at weekly pump changes to assure steady NTM bioavailability. Dosage schedules were developed based on previous experimental protocols and half-life studies. Control mice received sterile saline in the same volumes as NTM. Importins pull-down assay. […] Beads were boiled for 10 min in SDS loading buffer, and protein content was analyzed by immunoblotting with a panel of anti-importins alpha and beta antibodies and anti-GAPDH (Abcam) as a cellular protein control.

importin beta [6] = target: T1, importin beta; assay: Importins pull-down assay, HepG2 cell extract; type: binding; set-up: endogenous in cells; settings: HepG2 cell extracts
Description: as §2

[7] = test system: ldlr−/− mice fed a Western diet; assay: Hyperlipidemia, fatty liver, hyperglycemia and weight gain in ldlr-/- mice fed a Western diet; type: in vivo, mouse
Description: as §3
Six week old B6.129S7-Ldlrtm1Her/J female mice were purchased from Jackson Laboratories. […] Blood chemistries were determined in fasting mouse plasma using an automated chemistry analyzer in the Vanderbilt Clinical Research Center. Total cholesterol and triglycerides in liver and cholesterol in feces were analyzed by standard methods in the Lipid Core Laboratory. […] Cryostat sections of livers were stained with Oil-red-O. Atherosclerotic lesions and macrophages were analyzed in the aortic root by staining with Oil-red-O and MOMA-2, respectively. Average lesion area was determined using Imaging System KS300 2.0.

## CSCC[C@@H]1NC(=O)[C@H](CC(C)C)NC(=O)[C@H](CCCCN)NC(=O)[C@H](CCC(N)=O)NC(=O)[C@H](CCCNC(=N)N)NC(=O)[C@H](CCCCN)NC(=O)[C@H](CCCNC(=N)N)NC(=O)[C@H](CCC(N)=O)NC(=O)[C@H](C(C)C)NC(=O)[C@@H](NC(=O)[C@@H]2CCCN2C(=O)[C@H](C)NC(=O)[C@H](CC(C)C)NC(=O)[C@H](CC(C)C)NC(=O)[C@H](C)NC(=O)[C@H](CC(C)C)NC(=O)[C@H](CC(C)C)NC(=O)[C@@H](NC(=O)[C@H](C)NC(=O)[C@@H]2CCCN2C(=O)[C@H](CC(C)C)NC(=O)[C@H](CC(C)C)NC(=O)[C@H](C)NC(=O)[C@@H](NC(=O)[C@H](C)NC(=O)[C@H](C)N)C(C)C)C(C)C)CSSC[C@@H](C(=O)O)NC(=O)[C@@H]2CCCN2C1=O [cSN50.1] (H-AAVALLPAVLLALLAPCVQRKRQKLMPC-OH; disulfide 17-28; N-terminus and C-terminus assumed)
Solubility of peptides; read-out: solubility
  solubility: 100 mg/mL (≈ 33.5 mM)
ldlr−/− mice; 8 weeks of treatment
  signs of infection or illness: no overt signs of infection or illness
ldlr−/− mice; mouse, in vivo
  blood cell populations and blood chemistries: did not reveal any significant changes
  general susceptibility to environmental pathogens: did not cause any apparent signs

## CSCC[C@@H]1NC(=O)[C@H](CC(C)C)NC(=O)[C@H](CCCCN)NC(=O)[C@H](CCC(N)=O)NC(=O)[C@H](CCCNC(=N)N)NC(=O)[C@H](CCCCN)NC(=O)[C@H](CCCNC(=N)N)NC(=O)[C@H](CCC(N)=O)NC(=O)[C@H](C(C)C)NC(=O)[C@H](Cc2ccc(O)cc2)NC(=O)[C@@H](NC(=O)[C@@H]2CCCN2C(=O)[C@H](C)NC(=O)[C@H](CC(C)C)NC(=O)[C@H](CC(C)C)NC(=O)[C@H](C)NC(=O)[C@H](CC(C)C)NC(=O)[C@H](CC(C)C)NC(=O)[C@@H](NC(=O)[C@H](C)NC(=O)[C@@H]2CCCN2C(=O)[C@H](CC(C)C)NC(=O)[C@H](CC(C)C)NC(=O)[C@H](C)NC(=O)[C@@H](NC(=O)[C@H](C)NC(=O)[C@H](C)N)C(C)C)C(C)C)CSSC[C@@H](C(=O)O)NC(=O)[C@@H]2CCCN2C1=O [cSN50] (H-AAVALLPAVLLALLAPCYVQRKRQKLMPC-OH; disulfide 17-29; N-terminus and C-terminus assumed)
Solubility of peptides; depending on the method of synthesis and purification, read-out: soluble at levels
  solubility: 2 to 40 mg/mL (≈ 0.635 to 12.7 mM)

## AAVALLPAVLLALLAPCVQRDEQKLMPC (disulfide 17-28 (inferred)) [cSN50.1 Beta]
[1]
  interaction with importins alpha 1, 4, and 5: did not react

## AAVALLPAVLLALLAPVQRKRQKLMP [SN50]
Importin beta [2]
  interaction with importin beta: interacted
GAPDH [3]
  interaction with control protein GAPDH: not with the control protein GAPDH
[1]
  interaction with importins alpha 1, 4, and 5: interacted
Importin beta [4]
  inhibition of biotinylated SN50 binding to importin beta: competitively inhibited
GAPDH [5]
  interaction with control cytoplasmic marker protein GAPDH: not with the control cytoplasmic marker protein GAPDH
Importin beta [6]
  interaction with importin beta: interacted

## AVLLALLAP (HOMO SAPIENS) [SSHR-2]
Importin beta [2]
  interaction with importin beta: importin beta-binding function

## CVQRKRQKLMPC (disulfide 1-12 (inferred)) [cN50.1]
Importin beta [2]
  interaction with importin beta: did not react
[7]; 8 weeks
  liver alanine and aspartate transaminases (ALT and AST) in plasma: elevated levels
[7]; control peptide, plasma cholesterol and triglycerides
  results vs mice given saline: not different
[7]; non-cell penetrating control peptide in saline
  experimental endpoints (hypercholesterolemia) vs saline alone: did not differ significantly
[1]
  interaction with importins alpha 1, 4, and 5: maintain reactivity

## VQRKRQKLMP (HOMO SAPIENS) [N50]
Importin beta [2]
  interaction with importin beta: did not react
[1]
  interaction with importins alpha 1, 4, and 5: maintain reactivity

— US10272133B2, “Compositions and methods for treating and preventing hyperlipidemia, fatty liver, atherosclerosis and other disorders associated with metabolic syndrome” (VANDERBILT UNIVERSITY, priority 2011, dated 2019)
